Experiments:
PC12 cells = experiment: Evaluation using PC12 cells; immunostaining method for MAPK phosphorylation; type: cell-based; details: 30 minutes
Protocol: PC12 cells were stimulated using the compound of the present invention and the phosphorylation of MAPK was evaluated by means of immunostaining of the cells. The specific operation procedure is as follows.
A cover glass was placed on a 24-well plate followed by coating with poly-L-lysine. PC12 cells were seeded in a cell density of 50,000 cells/well. (The amount of the medium was 400 μL) On the first day after seeding the cells, the medium was exchanged to DMEM containing 1% fetal bovine serum (FBS) and 0.06% L-glutamine.
The compound which was previously diluted with DMSO was dissolved in 100 μl of medium. After 12 to 16 hours from the medium exchange, 100 μl out of 400 μl of the medium was removed from each well and, in place of that, 100 μl of a medium containing the compound was added.
After 30 minutes from the addition, fixation was conducted using 4% paraformaldehyde (PFA) for 10 minutes. The fixed cells were washed with a Tris-buffered saline (TBS) and a TBS containing 0.3% Triton X was added thereto followed by incubating at 37° C. for 30 minutes. This was washed with a TBS and blocked with a TBS containing 3% skim milk for 30 minutes (at room temperature).
This was washed with a TBS for one time and a primary antibody (anti-phospho-p42/44 MAPK antibody; cell signalings; #9102 being diluted with TBS to an extent of 1,000-fold) was added thereto followed by subjecting to the reaction at 4° C. for one night. The primary antibody was removed and washed with a TBS for three times. After that, the secondary antibody (Alexa 488 goat anti-rabbit antibody; Invitrogen: being diluted to an extent of 1,000-fold using a TBS containing 1% Block Ace) was added thereto and the reaction was conducted at room temperature for 3 hours. The secondary antibody was removed and, after washing with a TBS, fixation was conducted with 4% PFA for 1 hour.
This was washed with a TBS, Hoechst (diluted with a TBS to an extent of 2000-fold) was added thereto and nuclear staining was conducted. This was washed and mounted.
Taking the photographic pictures and counting the positive cells were conducted as follows. An all-in-one microscope (manufactured by Keyence) was used, exposing time for pMAPK (green) was made 1/2.8 s, the place was appropriately decided in a Hoechst-stained image and the pictures were taken. Four pictures per one glass sheet were taken.
Photoshop (Adobe) was used and the cells having above a certain luminance were judged to be positive. All cells were labeled using Hoechst 33342 manufactured by Invitrogen and the rate of pMAPK-positive cells in Hoechst-positive cells was calculated. (cf. Table 7)

[1] = system: paclitaxel-induced peripheral nerve disorder rats; experiment: von Frey test in paclitaxel-induced peripheral nerve disorder rats; type: in vivo; details: Rattus norvegicus, ip; single intraperitoneal dose of 300 μ/kg; higher of the thresholds after 1 hour and 5 hours; normal threshold 15; read-out: Recovery rate of 50% reaction threshold value (%)
Protocol: The effect of the compound of the present invention was tested for a peripheral nerve disorder which is a side effect induced by the administration of paclitaxel (an anti-cancer agent) such as hyperesthesia including allodynia (severe pain induced by such tactile stimuli which usually cause no pain). The compound of the present invention was intraperitoneally administered to rats as a test drug to conduct a von Frey test.
Male SD rats of six weeks age (one group comprising six rats) were used as experimental animals and paclitaxel (2 mg/kg) was intraperitoneally administered every other day for four times in total to prepare paclitaxel-induced peripheral nerve disorder rats. During 18 and 25 days or during 20 to 27 days after initiation of paclitaxel administration, the test drug was intraperitoneally administered in a single dose of […] and the following von Frey test was conducted.
The rats of the above (1) were placed in a transparent acrylic cage with a wire-meshed floor and habituated for about three minutes and the 50% reaction threshold values to the mechanical stimulus of right hind limb were measured before administration of the test drug and after 1, 5 and 24 hours from initiation of the administration.
The measurement was conducted using von Frey filaments (manufactured by North Coast Medical Inc.) in accordance with the methods of Chaplan, et al. (Journal of Neuroscience Methods, vol. 53, no. 1, pages 55 to 63, 1994) and Dixon, et al. (Annual Review of Pharmacology and Toxicology, vol. 20, pages 441 to 462, 1980). […] The case where the rat escaped at the instance of removing the filament was also called positive. When the positive reaction was noted, stimulus was conducted similarly using a filament of one rank weaker while, when no reaction was noted, stimulus was conducted similarly using a filament of one rank stronger and the point when the reaction changed from negative to positive or from positive to negative was called the first two reactions. After that, stimulus was conducted for continuous four times by the same up-down method. A 50% reaction threshold value to the mechanical stimulus was measured using the reaction to the six stimuli in total and then (mean value)±(standard error) for each group was calculated. Incidentally, when stimulus reached by that of 15.0 g without positive reaction or, when positive reaction continued to 0.4 g, then 15.0 g or 0.25 g was adopted as each threshold value, respectively. With regard to the higher 50% reaction threshold value between the 50% threshold values after 1 hour and 5 hours from administration of a test drug, a recovery rate (%) of the 50% reaction threshold value was calculated by the following expression in which 15 was adopted as the normal threshold value. Recovery rate (%) of 50% reaction threshold value=[(50% reaction threshold value after 1 hour or 5 hours from administration of test drug)−(50% reaction threshold value before administration of test drug)]/[(Normal threshold value)−(50% reaction threshold value before administration of test drug)]

SMILES	inhibition in vivo at 0.3 mg/kg [1]	also measured
CCCCCCC/C=C/C(=O)OCCCN(C)C [Compound 2, (E)-3-(dimethylamino)propyl dec-2-enoate]	58.1%	Rate of pMAPK-positive cells (%) (PC12 cells; 62.5 μg/mL): 0%; Rate of pMAPK-positive cells (%) (PC12 cells; 125 μg/mL): 19%; Rate of pMAPK-positive cells (%) (PC12 cells; 250 μg/mL): 71%; Rate of pMAPK-positive cells (%) (PC12 cells; 500 μg/mL): 53%
CCCCCCC/C=C/C(=O)OC(C)CN(C)C (centres unmarked) [Compound 3, (E)-1-(dimethylamino)propan-2-yl dec-2-enoate]	–	Rate of pMAPK-positive cells (%) (PC12 cells; 62.5 μg/mL): 0%; Rate of pMAPK-positive cells (%) (PC12 cells; 125 μg/mL): 12%; Rate of pMAPK-positive cells (%) (PC12 cells; 250 μg/mL): 14%; Rate of pMAPK-positive cells (%) (PC12 cells; 500 μg/mL): 14%
CCCCCCC/C=C/C(=O)OCC(C)(C)CN(C)C [Compound 5, (E)-3-(dimethylamino)-2,2-dimethylpropyl dec-2-enoate]	–	Rate of pMAPK-positive cells (%) (PC12 cells; 62.5 μg/mL): 1%; Rate of pMAPK-positive cells (%) (PC12 cells; 125 μg/mL): 23%; Rate of pMAPK-positive cells (%) (PC12 cells; 250 μg/mL): 0%; Rate of pMAPK-positive cells (%) (PC12 cells; 500 μg/mL): 24%
CCCCCCC/C=C/C(=O)OCCSC(C)C [Compound 8, (E)-2-(isopropylthio)ethyl dec-2-enoate]	32.2%	–
CCCCCCC/C=C/C(=O)OCCOC [Compound 9, (E)-2-methoxyethyl dec-2-enoate]	51.4%	–
CCCCCCC/C=C/C(=O)OCCOCC [Compound 10, (E)-2-ethoxyethyl dec-2-enoate]	26.4%	–
CCCCCCC/C=C/C(=O)OC(COCC)COCC [Compound 11, (E)-1,3-diethoxy-2-propyl dec-2-enoate]	37.6%	–
CCCCCCC/C=C/C(=O)OCCOCCN(C)C [Compound 12, (E)-2-(2-(dimethylamino)ethoxy)ethyl dec-2-enoate]	–	Rate of pMAPK-positive cells (%) (PC12 cells; 62.5 μg/mL): 11%; Rate of pMAPK-positive cells (%) (PC12 cells; 125 μg/mL): 17%; Rate of pMAPK-positive cells (%) (PC12 cells; 250 μg/mL): 9%; Rate of pMAPK-positive cells (%) (PC12 cells; 500 μg/mL): 29%
CCCCCCC/C=C/C(=O)NC [Compound 15, (E)-N-methyl dec-2-enamide]	37.7%	–
CCCCCCC/C=C/C(=O)NCC [Compound 16, (E)-N-ethyl dec-2-enamide]	59.7%	–
CCCCCCC/C=C/C(=O)NCCCC [Compound 17, (E)-N-butyl dec-2-enamide]	52.6%	–
CCCCCCC/C=C/C(=O)NCC(C)C [Compound 18, (E)-N-isobutyl dec-2-enamide]	54.6%	–
CCCCCCC/C=C/C(=O)NCCCCC [Compound 19, (E)-N-pentyl dec-2-enamide]	73.7%	–
CCCCCCC/C=C/C(=O)NCCC(C)C [Compound 20, (E)-N-isopentyl dec-2-enamide]	42.5%	–
CCCCCCC/C=C/C(=O)NC(C)(C)CC [Compound 21, (E)-N-tert-pentyl dec-2-enamide]	63.2%	–
CCCCCCC/C=C/C(=O)NCCCCCC [Compound 22, (E)-N-hexyl dec-2-enamide]	64.6%	–
CCCCCCC/C=C/C(=O)NCCCCCCC [Compound 23, (E)-N-heptyl dec-2-enamide]	28.6%	–
CCCCCCC/C=C/C(=O)NC(CCC)CCC [Compound 24, (E)-N-(heptan-4-yl) dec-2-enamide]	56.1%	–
CCCCCCC/C=C/C(=O)NC(CC)CCCCC (centres unmarked) [Compound 25, (E)-N-(octan-3-yl) dec-2-enamide]	33.7%	–
CCCCCCC/C=C/C(=O)NC(C)(C)CC(C)(C)C [Compound 26, (E)-N-(2,4,4-trimethylpentan-2-yl) dec-2-enamide]	55.7%	–

SMILES	inhibition in vivo at 0.3 mg/kg [1]	also measured
CCCCCCC/C=C/C(=O)NC1CCCCC1 [Compound 27, (E)-N-cyclohexyl dec-2-enamide]	46.4%	–
CCCCCCC/C=C/C(=O)Nc1ccccc1 [Compound 28, (E)-N-phenyl dec-2-enamide]	19.4%	–
CCCCCCC/C=C/C(=O)NCCc1ccccc1 [Compound 29, (E)-N-phenethyl dec-2-enamide]	46.3%	–
CCCCCCC/C=C/C(=O)N(CC)CC [Compound 31, (E)-N,N-diethyl dec-2-enamide]	43.1%	Rate of pMAPK-positive cells (%) (PC12 cells; 62.5 μg/mL): 79%; Rate of pMAPK-positive cells (%) (PC12 cells; 125 μg/mL): 95%; Rate of pMAPK-positive cells (%) (PC12 cells; 250 μg/mL): 98%; Rate of pMAPK-positive cells (%) (PC12 cells; 500 μg/mL): 96%
CCCCCCC/C=C/C(=O)N(CCCC)CCCC [Compound 32, (E)-N,N-dibutyl dec-2-enamide]	70.6%	–
CCCCCCC/C=C/C(=O)N(CCCCC)CCCCC [Compound 33, (E)-N,N-dipentyl dec-2-enamide]	45.3%	–
CCCCCCC/C=C/C(=O)N(CCCCCC)CCCCCC [Compound 34, (E)-N,N-dihexyl dec-2-enamide]	48.3%	–
CCCCCCC/C=C/C(=O)N(CC)CCCCCCC [Compound 35, (E)-N-ethyl-N-heptyl dec-2-enamide]	47.1%	–
CCCCCCC/C=C/C(=O)NCCCN(C)C [Compound 38, (E)-N-3-(dimethylamino)propyl dec-2-enamide]	52.1%	–
CCCCCCC/C=C/C(=O)NCCCN(CC)CC [Compound 39, (E)-N-3-(diethylamino)propyl dec-2-enamide]	49.7%	–
CCCCCCC/C=C/C(=O)NCCN(C(C)C)C(C)C [Compound 40, (E)-N-2-(diisopropylamino)ethyl dec-2-enamide]	71.5%	–
CCCCCCC/C=C/C(=O)NCCN(CCCC)CCCC [Compound 41, (E)-N-2-(dibutylamino)ethyl dec-2-enamide]	28.3%	–
CCCCCCC/C=C/C(=O)SCCCCC [Compound 48, (E)-S-pentyl dec-2-enethioate]	50.7%	–
CCCCCCC/C=C/C(=O)SCCC(C)C [Compound 49, (E)-S-isopentyl dec-2-enethioate]	69.3%	–
CCCCCCC/C=C/C(=O)SCCCCCC [Compound 50, (E)-S-hexyl dec-2-enethioate]	51.7%	–
CCCCCCC/C=C/C(=O)SCCCCCCC [Compound 51, (E)-S-heptyl dec-2-enethioate]	45.7%	–
CCCCCCC/C=C/C(=O)SCCCCCCCCCC [Compound 52, (E)-S-decyl dec-2-enethioate]	18.7%	–
CCCCCCC/C=C/C(=O)SC1CCCC1 [Compound 53, (E)-S-cyclopentyl dec-2-enethioate]	34.9%	–
CCCCCCC/C=C/C(=O)SCCc1ccccc1 [Compound 54, (E)-S-phenethyl dec-2-enethioate]	51.9%	–
